The record followed here is patent US20230312601A1, “THIAZOLO[5,4-B]PYRIDINE MALT-1 INHIBITORS” (AbbVie Inc., priority 2022, published 2023).

Each structure is given as a SMILES string.

The EC50 is the midpoint of the concentration-response curve. For orientation: fold induction means the signal under treatment as a multiple of the control signal. Read a low fold induction as little rise in signal.

In one data set the target is human MALT-1 protein (Homo sapiens (Human), UniProt Q9UDY8). In words: MALT-1 Biochemical Assay (Quench-FRET enzyme assay). The conditions noted are these: human MALT-1 6 nM, substrate 2 μM, 40 min preincubation. From the text: A Quenched Fluorescence Resonance Energy Transfer (Quench-FRET) enzyme assay was used to test the ability of exemplary MALT-1 inhibitors Example 1 to Example 39 to inhibit the cleavage of a MALT1 specific quenched fluorescent substrate of sequence [TAMRA-PEG2-Leu-Val-Ser-Arg-Gly-Ala-Ala-Ser-PEG2-K(QSY7) by human MALT-1 protein; where TAMRA is 6-carboxytetramethylrhodamine, PEG2 is 2-(2-(2-aminoethoxy)ethoxyamide linker, QSY7 is a non-fluorescent quenching dye (Thermo-Fisher catalog #Q10193). The assay was performed by pre-dispensing compounds into 384 well Proxiplates™ (PE 6008289). Human MALT-1 (6 nM) was prepared using the assay buffer (25 mM HEPES pH 7.5, 1 mM ethylenediaminetetraacetic acid, 0.8 M sodium citrate, 0.005% Bovine serum albumin (BSA), 2 mM dithiothreitol (DTT)) and added to the compound plates. The plates were incubated 40 minutes at room temperature. The reaction was carried out by adding the substrate (2 μM) to the plates and incubating for 60 minutes at room temperature. A fluorescence readout was then measured using a PE EnVision® reader (Ex.535/Em.590). […] EC50 is defined as the half maximal effective concentration of compound to inhibit MALT-1 protease activity.

Another data set has as its system CYP3A4 mRNA. In words: CYP3A4 Induction Assay (qPCR, human hepatocytes). The class given is in vitro ADME. The conditions noted are these: cryopreserved human hepatocytes (plated), 10 μM compound, mRNA fold over vehicle (0.1% DMSO). On the procedure: (§1) CYP induction by compounds of the Examples was evaluated in vitro by determining the expression levels of CYP 3A4 mRNA using the qPCR (quantitative polymerase chain reaction) assay. On day one, cryopreserved human hepatocytes were thawed in prewarmed (37° C.) thawing medium (cryopreserved hepatocyte recovery medium, Gibco™ CM 7000; Thermo Fisher Scientific), centrifuged (1000 g for 10 minutes) and resuspended in plating medium (Gibco™ CM3000—Williams Medium E supplemented with hepatocytes plating supplement pak-serum containing; Thermo Fisher Scientific). Cells were counted by trypan blue exclusion using a hemocytometer and adjusted to a cell density of […]. Thereafter, […] of cell suspension was aliquoted per well in a 96-well plate, resulting in 60,000 cells/well. Plates were shaken in the north-south and east-west direction during plating. Plated cells were incubated at 37° C/5% CO2 in a humidified cell culture incubator for 4-6 hours. During this time, incubation medium (Gibco™ CM4000, cell maintenance supplement pack; Thermo Fisher Scientific) was mixed with Gibco™ Geltrex™ (Thermo Fischer Scientific) at the appropriate GeltrexTM protein concentration. Following recovery, medium was removed from cells and replaced with freshly prepared incubation medium. Cells were incubated overnight in a cell culture incubator (37° C./5% CO2).
(§2) The next day the incubation medium was prepared by combining the hepatocyte maintenance supplement pack with Williams Medium E. The medium was warmed to 37° C. 1000× dimethyl sulfoxide compound stocks of the compounds of the Examples were prepared to the desired concentrations. 10 mM compound stocks in dimethyl sulfoxide were diluted (1 μL to 1 mL CM4000; final concentration=10 μM). Overlay medium was aspirated and […] dose solution added to the desired labeled 96 well plate. Cells were then dosed with compound (10 μM) and prototypical induces at the targeted concentrations either 50 i.tM for omeprazole (Sigma 0104/lotBCBF-2161V) or 10 i.tM for rifampicin (Sigma R3501/lot 011M1159V). A negative control, probenecid, was dosed at 10 i.tM (Sigma P8761/lot 013K0148).
(§3) On day 3, RNA isolation was performed. All surfaces were cleaned using RNase RNAy. Total RNA was isolated using MagMAX Express 96 RNA Isolation System (Life Technologies, AM1830). Briefly, hepatocytes were washed once with 1X PBS (phosphate buffered saline). 145 μL of RNA Lysis Buffer was added to each well and each well was mixed by pipetting several times. Lysate was then transferred to a well of a 96 well Binding Plate. Samples were then mixed with 20 μL magnetic beads coming from the kit. RNA bound to beads was then captured by the magnetic tip manifold and beads were washed with the wash solution. Samples were treated with TURBOTmDNase. After TURBOTmDNase treatment, RNA was rebound to beads and washed with the provided wash buffer an additional two times. Beads are then dried, and RNA was eluted with 50 μL elution buffer. The eluted mRNA was transferred from the wells to RNase-free sealable microtiter plates and stored at -80° C. until use.
(§4) Following mRNA isolation, reverse transcription (RT) reactions were performed using TaqmanTm Reverse Transcription Reagents (ThermoFisher Scientific). RT master mix was prepared by mixing 2.5 μL 10× RT buffer, 5.5 μL 25 mM MgCl2, 5μL deoxyNTP mixture, 1.25 50 mM random hexamers, 0.5 μL 2× RNAse inhibitor, 0.625 μL multiscript RTase (50U/μL) and 0.625 μL water. An aliquot of RT mix (16 μL) and an aliquot of mRNA sample (9 μL) was added to each well of a 96-well plate. The SimpliAmpTM Thermal cycler PCR System VIIA7 from Applied Biosystems was used for reverse transcription under the following conditions: segment 1: 25° C. for 10 minutes; segment 2: 45° C. for 45 minutes; segment 3: 95° C. for 5 minutes; and segment 4: 4° C. hold; with 1 cycle for each segment. […]
For orientation: Real-time PCR tracks product formation cycle by cycle.

Another data set concerns CYP 3A4 mRNA. The experiment in a line: CYP3A4 Induction Assay (qPCR, human hepatocytes). Type of data set: in vitro ADME. Particulars: 10 μM compound, relative to rifampicin 10 μM. The method, then:
as §1, §2, §3, §4

For a further data set, the system named is OCI-LY3 IL6. In words: MALT-1 Cell IL-6 AlphaLISA Assay. The conditions noted are these: Homo sapiens; OCI-LY3 cells, 48 hours incubation; read-out: OCI-LY3 IL6 48 hour Inhibition EC50. Type of data set: cell-based. On the procedure:
The following MALT-1 Cell Interleukin-6 (IL-6) AlphaLISA assay was conducted using a Perkin Elmer® IL-6 AlphaLISA® detection kit (PE AL223). The IL-6 detection assay is a homogeneous immunoassay that detects human IL-6 present in the cell culture medium in the MALT-1 dependent human ABC-DLBCL cell line, OCI-LY3. Compounds were pre-dispensed into Black 384w microtiter plates (Greiner, 781090) from 30 μM to 1.5 nM. Viable OCI-LY3 cells were then seeded on top of compounds at a seeding density of 50,000 cells/mL. Plates were then placed into 37° C. incubators for 48 hours. After 48 hours incubation, 2 μL of cell medium from each well was transferred into white ProxiPlates™ (PE 6008289). A fresh mix of AlphaLISA Acceptor beads (10 μg/mL) and Biotinylated IL-6 Antibody (1 nM) was made in AlphaLISA Immunoassay buffer and added to all wells (4 μL). The plates were incubated for 60 minutes at room temperature. Streptavidin donor beads (40 μg/mL) were prepared using the assay buffer and added to all wells (5 The plates were incubated for 30 minutes at room temperature and read using PE EnVision® reader. Results are shown in Table 3.
On the technique in general: In Alpha technology, singlet oxygen from a donor bead excites a nearby acceptor bead.

Chain of human MALT-1 protein (Q9UDY8 whole entry): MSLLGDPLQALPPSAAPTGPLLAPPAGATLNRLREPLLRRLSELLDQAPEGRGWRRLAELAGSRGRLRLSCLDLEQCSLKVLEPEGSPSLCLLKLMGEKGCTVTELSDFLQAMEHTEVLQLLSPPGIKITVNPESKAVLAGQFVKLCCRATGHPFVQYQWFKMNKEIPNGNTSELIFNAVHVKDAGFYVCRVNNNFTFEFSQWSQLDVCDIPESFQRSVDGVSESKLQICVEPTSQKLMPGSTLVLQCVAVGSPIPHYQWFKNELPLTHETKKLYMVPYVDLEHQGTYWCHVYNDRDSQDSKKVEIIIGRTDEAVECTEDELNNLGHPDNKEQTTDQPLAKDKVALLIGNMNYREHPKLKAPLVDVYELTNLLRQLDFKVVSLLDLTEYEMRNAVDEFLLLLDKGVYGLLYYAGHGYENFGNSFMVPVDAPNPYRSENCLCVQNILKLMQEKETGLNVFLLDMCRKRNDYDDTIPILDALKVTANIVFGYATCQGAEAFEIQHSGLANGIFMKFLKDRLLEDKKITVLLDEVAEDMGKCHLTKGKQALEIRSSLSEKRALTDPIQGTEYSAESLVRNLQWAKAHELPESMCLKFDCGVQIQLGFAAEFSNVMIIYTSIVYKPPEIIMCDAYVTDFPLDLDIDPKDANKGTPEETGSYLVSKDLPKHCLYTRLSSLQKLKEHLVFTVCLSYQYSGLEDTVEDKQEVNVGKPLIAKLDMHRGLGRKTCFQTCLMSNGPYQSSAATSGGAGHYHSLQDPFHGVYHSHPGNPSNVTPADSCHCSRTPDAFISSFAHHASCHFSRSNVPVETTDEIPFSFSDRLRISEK

For the molecule `CO[C@@H](C)c1c(Nc2ccc([C@@H](C(F)F)N(C)C(=O)C3CCN(C(=O)CO)CC3)cc2)cnc2sc(C)nc12` [Example 28, N-{(1S)-2,2-difluoro-1-[4-({7-[(1S)-1-methoxyethyl]-2-methyl[1,3]thiazolo[5,4-b]pyridin-6-yl}amino)phenyl]ethyl}-1-(hydroxyacetyl)-N-methylpiperidine-4-carboxamide], the EC50 on human MALT-1 protein came out at 138 nM; in the data set on OCI-LY3 IL6, 420 nM. In the data set with CYP3A4 mRNA, this molecule came in with a fold induction at 1 day, 10 µM of 2.24. Besides, the “CYP3A4 % of positive control (%)” value in the data set with CYP 3A4 mRNA is on record as “(15.1) %”.
The corresponding values for `CO[C@H](c1c(Nc2ccc([C@@H](C(F)F)N(C)C(=O)C3CCN(C(=O)CO)CC3)cc2)cnc2sc(C)nc12)C(F)(F)F` [Example 36, N-{(1S)-2,2-difluoro-1-[4-({2-methyl-7-[(1R)-2,2,2-trifluoro-1-methoxyethyl][1,3]thiazolo [5,4-b]pyridin-6-yl}amino)phenyl]ethyl}-1-(hydroxyacetyl)-N-methylpiperidine-4-carboxamide] are 48 nM, 270 nM, 1.9 and “(14.4) %”.
On to `CO[C@@H](C)c1c(Nc2ccc([C@@H](C(F)F)N(C)C(=O)C3CCN(C(C)=O)CC3)cc2)cnc2sc(C)nc12` [Example 29, 1-acetyl-N-{(1S)-2,2-difluoro-1-[4-({7-[(1S)-1-methoxyethyl]-2-methyl[1,3]thiazolo[5,4-b]pyridin-6-yl}amino)phenyl]ethyl}-N-methylpiperidine-4-carboxamide], for which the results for the EC50 on human MALT-1 protein and with OCI-LY3 IL6 were 232 nM and 300 nM, respectively. In the data set with CYP3A4 mRNA, this molecule returned a fold induction at 1 day, 10 µM of 3.29. Besides, the “CYP3A4 % of positive control (%)” value with CYP 3A4 mRNA is recorded as “(27.8) %”.
Turning to `CO[C@H](c1c(Nc2ccc([C@@H](C(F)F)N(C)C(=O)C3CCS(=O)(=O)CC3)cc2)cnc2sc(C)nc12)C(F)(F)F` [Example 14, N-{(1S)-2,2-difluoro-1-[4-({2-methyl-7-[(1R)-2,2,2-trifluoro-1-methoxyethyl][1,3]thiazolo[5,4-b]pyridin-6-yl}amino)phenyl]ethyl}-N-methyl-1,1-dioxo-1λ^6-thiane-4-carboxamide], the EC50 at human MALT-1 protein was 97 nM; with OCI-LY3 IL6 it was 200 nM. The fold induction at 1 day, 10 µM with CYP3A4 mRNA is 2.71. In the data set with CYP 3A4 mRNA, the “CYP3A4 % of positive control (%)” value was “(27.3) %”.
For `CO[C@@H](C)c1c(Nc2ccc([C@H](N(C)C(=O)C3CCN(C(=O)[C@@H](C)O)CC3)C(F)(F)F)cc2)cnc2sc(C)nc12` [Example 25, 1-[(2R)-2-hydroxypropanoyl]-N-methyl-N-{(1S)-2,2,2-trifluoro-1-[4-({7-[(1S)-1-methoxyethyl]-2-methyl[1,3]thiazolo [5,4-b]pyridin-6-yl}amino)phenyl]ethyl}piperidine-4-c arboxamide], in that order: 67 nM, 250 nM, 1.16 and “(2.45) %”.
Regarding `CO[C@H](C)c1c(Nc2ccc([C@H](N(C)C(=O)C3CCN(C(C)=O)CC3)C(F)(F)F)cc2)cnc2sc(C)nc12` [Example 35, 1-acetyl-N-methyl-N-{(1S)-2,2,2-trifluoro-1-[4-({7-[(1R)-1-methoxyethyl]-2-methyl[1,3]thiazolo [5,4-b]pyridin-6-yl}amino)phenyl]ethyl}piperidine-4-carboxamide], the EC50 on human MALT-1 protein amounted to 500 nM; in the data set on OCI-LY3 IL6, 7300 nM. For the same molecule, the fold induction at 1 day, 10 µM in the data set with CYP3A4 mRNA amounted to 2.45. Also, in the data set with CYP 3A4 mRNA, the “CYP3A4 % of positive control (%)” value is given as “(17) %”.
For `CO[C@@H](c1c(Nc2ccc([C@H](N(C)C(=O)C3CCS(=O)(=O)CC3)C(F)(F)F)cc2)cnc2sc(C)nc12)C(F)(F)F` [Example 11, N-methyl-1,1-dioxo-N-{(1S)-2,2,2-trifluoro-1-[4-({2-methyl-7-[(1S)-2,2,2-trifluoro-1-methoxyethyl][1,3]thiazolo[5,4-b]pyridin-6-yl}amino)phenyl]ethyl}-1λ^6-thiane-4-carboxamide], in that order: 155 nM, 390 nM, 2.59 and “(20) %”.
The corresponding values for `CO[C@H](C)c1c(Nc2ccc([C@H](N(C)C(=O)C3CCN(C(=O)CO)CC3)C(F)(F)F)cc2)cnc2sc(C)nc12` [Example 34, 1-(hydroxyacetyl)-N-methyl-N-1{(1S)-2,2,2-trifluoro-1-[4-({7-[(1R)-1-methoxyethyl]-2-methyl[1,3]thiazolo[5,4-b]pyridin-6-yl}amino)phenyl]ethyl}piperidine-4-carboxamide] are 112 nM, 190 nM, 2.11 and “(13) %”.
For `Cc1nc2c([C@@H](C)C(F)(F)F)c(Nc3ccc([C@H](N(C)C(=O)C4CCS(=O)(=O)CC4)C(F)(F)F)cc3)cnc2s1` (single isomer, unassigned) [Example 38], in that order: 156 nM, 190 nM, 2.72 and “(19.9) %”.
On to `CO[C@H](c1c(Nc2ccc([C@@H](C(F)F)N(C)C(=O)C3CCN(C(C)=O)CC3)cc2)cnc2sc(C)nc12)C(F)(F)F` [Example 37, 1-acetyl-N-{(1S)-2,2-difluoro-1-[4-({2-methyl-7-[(1R)-2,2,2-trifluoro-1-methoxyethyl][1,3]thiazolo[5,4-b]pyridin-6-yl}amino)phenyl]ethyl}-N-methylpiperidine-4-carboxamide], for which the concentration for a half-maximal effect (EC50) amounted to 60 nM at human MALT-1 protein and 210 nM with OCI-LY3 IL6. In the data set with CYP3A4 mRNA, this molecule had a fold induction at 1 day, 10 µM of 2.19. Moreover, the “CYP3A4 % of positive control (%)” value in the data set with CYP 3A4 mRNA was “(19) %”.
